Assay results: BindingDB's records for doi:10.7270/Q2TX3CTT (Broad Institute, 2010)
Where a name gives a salt, the structure may show the parent alone.

target: Glycogen synthase kinase-3 beta (Homo sapiens, UniProt P49841); assay: GSK3beta kinase inhibitor potency, dose response, biochemical, luminescence, cell-free homogeneous, retest (AID 434954)
Sequence (P49841 whole entry): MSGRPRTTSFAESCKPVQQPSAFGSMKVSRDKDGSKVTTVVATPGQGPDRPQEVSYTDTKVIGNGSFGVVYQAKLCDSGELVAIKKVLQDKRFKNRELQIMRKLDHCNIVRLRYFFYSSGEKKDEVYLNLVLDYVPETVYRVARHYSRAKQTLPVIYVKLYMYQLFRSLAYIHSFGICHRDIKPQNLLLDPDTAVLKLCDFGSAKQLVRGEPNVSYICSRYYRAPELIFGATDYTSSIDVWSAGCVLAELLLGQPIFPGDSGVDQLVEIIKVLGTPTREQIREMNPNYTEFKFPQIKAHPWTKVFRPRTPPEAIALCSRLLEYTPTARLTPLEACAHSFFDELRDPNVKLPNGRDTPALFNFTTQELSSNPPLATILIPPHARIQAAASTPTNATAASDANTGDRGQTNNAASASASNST

Row | Compound | EC50
1 | CN(Cc1c(C(=O)NN=Cc2ccc(O)cc2)nnn1-c1nonc1N)C1CCCCC1 [MLS001142838] | 0.186 µM
2 | O=C(Nc1ccnn1C1CCN(Cc2cccc(OCCO)c2)CC1)C1CCCC1 [N-[2-[1-[[3-(2-hydroxyethyloxy)phenyl]methyl]piperidin-4-yl]pyrazol-3-yl]cyclopentanecarboxamide] | > 300 µM
3 | Cc1ccc(C(=O)/[O+]=N/[CH-]c2ccc(N3CCCCC3)c([N+](=O)[O-])c2)cc1 [[(3-nitro-4-piperidin-1-ylphenyl)methylideneamino] 4-methylbenzoate] | > 300 µM
4 | COCCN(CC(=O)NCc1ccc(OC)cc1)C(=O)CCC(=O)Nc1nccs1 [MLS000032576] | > 300 µM
5 | CCCCOC(=O)c1ccc(O)cc1 [butyl 4-hydroxybenzoate] | > 300 µM
6 | Nc1nonc1-n1nnc(C(=O)NN=Cc2ccccc2F)c1CN1CCOCC1 [1-(4-azanyl-1,2,5-oxadiazol-3-yl)-N-[(2-fluorophenyl)methylideneamino]-5-(morpholin-4-ylmethyl)-1,2,3-triazole-4-carboxamide] | 92.1 µM
7 | CCC(=O)Nc1sc2c(c1C(N)=O)CCN(C(C)=O)C2 [6-acetyl-2-(1-oxopropylamino)-5,7-dihydro-4H-thieno[2,3-c]pyridine-3-carboxamide] | 13.8 µM
8 | CCN1CCN(CC2COc3ccccc3O2)CC1 (centres undefined) [MLS001173643] | > 300 µM
9 | C[C@@H]1O[C@@H](OC[C@H]2O[C@@H](Oc3c(-c4ccc(O)c(O)c4)oc4cc(O)cc(O)c4c3=O)[C@H](O)[C@@H](O)[C@@H]2O)[C@H](O)[C@H](O)[C@H]1O [3-Rhamnoglucosylquercetin] | 28 µM
10 | O=C(CCCC1=Nc2ccccc2S(=O)(=O)N1)Nc1ccccc1 [MLS001028511] | > 300 µM
11 | O=C1Nc2cc(C(=O)NCCCN3CCCC3)ccc2S/C1=C/c1ccccc1F [(2E)-2-[(2-fluorophenyl)methylidene]-3-oxo-N-(3-pyrrolidin-1-ylpropyl)-4H-1,4-benzothiazine-6-carboxamide] | 6.99 µM
12 | CCOC(=O)c1nnn(-c2nonc2N)c1-c1cccs1 [1-(4-amino-1,2,5-oxadiazol-3-yl)-5-thiophen-2-yl-4-triazolecarboxylic acid ethyl ester] | 11.7 µM
13 | CCN1CCc2c(sc(NC(=O)CN3C(=O)c4ccccc4C3=O)c2C(N)=O)C1 [2-[2-[1,3-bis(oxidanylidene)isoindol-2-yl]ethanoylamino]-6-ethyl-5,7-dihydro-4H-thieno[2,3-c]pyridine-3-carboxamide;hydrochloride] | > 300 µM
14 | COCCn1c(SCC(=O)NCc2ccc(F)cc2)nc2ccccc21 [N-[(4-fluorophenyl)methyl]-2-[1-(2-methoxyethyl)benzimidazol-2-yl]sulfanylacetamide] | > 300 µM
15 | CCc1c(C)c2ccc(O)c(CN(C)C)c2oc1=O [8-[(dimethylamino)methyl]-3-ethyl-4-methyl-7-oxidanyl-chromen-2-one] | > 300 µM
16 | Cc1ccccc1CN=Nc1ncnc2nc[nH]c12 [MLS000419110] | 17.2 µM
17 | O=C(O)c1ccccc1Nc1ccc([N+](=O)[O-])cc1 | > 300 µM
18 | Cc1cc(Cl)nc(Cl)c1C(=O)N1CCOCC1 [SMR000307050] | > 300 µM
19 | NS(=O)(=O)c1ccc(N2CCCCCC2)c([N+](=O)[O-])c1 [4-(azepan-1-yl)-3-nitrobenzenesulfonamide] | > 300 µM
20 | CCOC(=O)c1cnc2ccc(OCC)cc2c1N1CCN(c2ccccc2)CC1 [SMR000130091] | 29 µM
21 | CCCc1cc(O)c2c(C)cc(=O)oc2c1 [5-hydroxy-4-methyl-7-propyl-1-benzopyran-2-one] | > 300 µM
22 | O=C(O)c1cc(-c2ccc(CN=Nc3ccc(Cl)cc3)o2)ccc1Cl [2-chloro-5-{5-[2-(4-chlorophenyl)carbonohydrazonoyl]-2-furyl}benzoic acid] | > 300 µM
23 | CCOC(=O)c1[nH]c(C)c(C(=O)NCc2ccc(OC)cc2)c1C | > 300 µM
24 | O=C(CN(Cc1ccc(F)cc1)C(=O)CCC(=O)Nc1ccccn1)NCc1ccc(F)cc1 [N-(4-Fluoro-benzyl)-N-[(4-fluoro-benzylcarbamoyl)-methyl]-N'-pyridin-2-yl-succinamide] | 37.7 µM
25 | Cc1ccc(C(=O)Nc2ccccc2C(=O)NCc2ccco2)cc1S(=O)(=O)N1CCCCC1 [SMR000076380] | > 300 µM

Row | Compound | EC50
26 | CCCCC(=O)Nc1cc(C)c(NC(=O)c2cccs2)cn1 [N-[4-methyl-6-(1-oxopentylamino)-3-pyridinyl]-2-thiophenecarboxamide] | > 300 µM
27 | N#Cc1c(Cl)nc(-c2ccncc2)nc1-c1ccccc1 [SMR000549420] | 15.2 µM
28 | Cn1nc2c3ccccc3n(Cc3ccc(F)cc3)c2nc1=S | > 300 µM
29 | O=C(Nc1ccc(O)c2c(=O)cc(-c3ccccc3Cl)oc12)c1cccs1 [SMR000465219] | 16.7 µM
30 | CCOC(=O)c1cnc2ccc(OC)cc2c1NCCc1ccc(OC)c(OC)c1 | > 300 µM
31 | CCOc1ccccc1C=NNC(=O)c1nnn(-c2nonc2N)c1CN1CCCCCC1 | 0.105 µM
32 | CC1(C)Nc2ccc(O)cc2-c2c1ssc2=S [SMR000038969] | 21.4 µM
33 | Cc1ccc(/C=C2/Sc3ccc(C(=O)NCCN4CCOCC4)cc3NC2=O)cc1 | > 300 µM
34 | COC(=O)C(C)Sc1ccc2nnc(-c3ccc(F)cc3)n2n1 (centres undefined) [MLS000093331] | 11.9 µM
35 | OC(CNc1nc(-c2cccnc2)nc2ccccc12)c1ccccc1 (centres undefined) [SMR000592049] | > 300 µM
36 | Cn1c(=O)c2[nH]c(CN(Cc3ccccc3)Cc3ccccc3)nc2n(C)c1=O [MLS000081398] | > 300 µM
37 | O=c1[nH]c2ccccc2c(=O)n1-c1ccc(Cl)cc1Cl [3-(2,4-dichlorophenyl)quinazoline-2,4(1H,3H)-dione] | > 300 µM
38 | CCN1CCN(C(=O)Cn2nc(C)n3c(cc4c(OC)cccc43)c2=O)CC1 [MLS001076371] | > 300 µM
39 | Cc1cccc(-n2c(=O)c3c4c(sc3n3c(=S)[nH]nc23)CCC4)c1 [1-mercapto-4-(3-methylphenyl)-7,8-dihydro-6H-cyclopenta[4,5]thieno[3,2-e][1,2,4]triazolo[4,3-a]pyrimidin-5(4H)-one] | 48.9 µM
40 | Cc1cccn2c(=O)nc(SCC(=O)NC3CCCCC3)nc12 | > 300 µM
41 | Cc1nn(CC(=O)NCCCN2CCCCC2)c(=O)c2cc(-c3ccccc3)nn12 [SMR000631197] | > 300 µM
42 | COc1ccc(-c2nn(CCC#N)cc2CN=O)cc1 | 86.3 µM
43 | Nc1nonc1-n1nnc(C(=O)NN=Cc2cccc(O)c2)c1CN1CCCC1 [1-(4-azanyl-1,2,5-oxadiazol-3-yl)-N-[(3-hydroxyphenyl)methylideneamino]-5-(pyrrolidin-1-ylmethyl)-1,2,3-triazole-4-carboxamide] | 12.8 µM
44 | Cc1cn(C2OC(COC(=O)c3ccccc3)C(O)C2O)c(=O)[nH]c1=O (centres undefined) [benzoic acid [3,4-dihydroxy-5-(5-methyl-2,4-dioxo-1-pyrimidinyl)-2-oxolanyl]methyl ester] | 19.2 µM
45 | CCn1c(SCc2c(F)cccc2Cl)nnc1-c1ccco1 [3-[(2-chloro-6-fluorophenyl)methylsulfanyl]-4-ethyl-5-(furan-2-yl)-1,2,4-triazole] | > 300 µM
46 | O=c1oc(-c2cccs2)nc2sc3c(c12)CCCCC3 | > 300 µM
47 | CNc1nc(-c2ccccc2)nc(-c2ccccc2)c1C#N [MLS000539511] | > 300 µM
48 | CN1CCc2c(sc3c2c(=O)n(-c2ccccc2)c2nnc(SCc4ccc(Cl)cc4)n32)C1 [SMR000045323] | > 300 µM
49 | C/C=C/c1ccc(OCC(=O)O)c(OC)c1 | > 300 µM
